# Results: US5906922A, “Delivery of nucleic acids” (Commonwealth Scientific and Industrial Research Organisation, priority 1994, dated 1999)
# Like-named read-outs stand apart in the source and are kept apart here. Where a SMILES comes first, the peptide text is derived from it. The star is where a group is joined. NHC(CH2OLauroyl)3 = CCCCCCCCCCCC(=O)OCC(COC(=O)CCCCCCCCCCC)(COC(=O)CCCCCCCCCCC)N*
# How the values were obtained:
# CHO cells [1] = experiment: β-gal microtitre plate transfection assay, CHO; type: cell-based, Chinese Hamster; conditions: Table 3, CHO
# From the text: For experiment "c", a plasmid pPGKlaczNLS encoding β-galactosidase under the control of the mouse PGK promoter (kind gift from G.Hannan) or pSVGAL which utilises the SV40 early promoter (Sleigh, M. J. and Lockett, T. J. (1985). EMBO J. 4:3831-3837),was transfected. This experiment and assay were modified from Feigner et al J. Biol Chem. 269(4) 2550-2561 1994. This protocol allows the simultaneous assessment of 72 different combinations and concentrations of DNA and test agent in a microtitre tray. […] Cytotoxicity was assessed using alamar blue, and a sample graph is shown for experiment a.
# Each of these compounds was tested for transfection ability and cytotoxicity on standard cell lines using standard conditions as described above.
# (§1) The ratio of [lipid]/[DNA] at which that maximum was achieved is shown in brackets for the two different cell types in the following order; (Cos 1) (CHO). Experiments shown were carried out in Cos 1 cells, as described above. Viability was measured with the dye alamar blue . # Denotes compounds tested in a separate experiment. * Viability in this experiment was determined with MTS. OD is a measure of relative viability of the cells exposed to the different agents, and as with alamar blue, a higher value indicates greater cell viability.
# in vitro = type: cell-based, Chinese Hamster; conditions: hamster, cho cells
# Method: (§2) An 18-mer 5'-fluoresceinated phosphorothioate oligonucleotide was transfected into CHO cells. A comparison was made between the ability of K3C7ATL3, K3ATL3 and no-agent, to transfect the oligonucleotide into the cells. The oligonucleotide was serially diluted from 121.2 μM nucleotide, to 60.6 and 30.3 μM nucleotide. The test lipopeptides were serially diluted from 84 μM , to 42 and 21 μM. These dilutions were combined in a 3×3 matrix resulting in concentrations half that described. That is, the top dilution of oligonucleotide became 60.6 μM nucleotide (3.37 μM 18-mer oligonucleotide) and lipopeptide 42 μM. The mix was allowed to incubate for 10 min at room temperature and then overlayed on CHO cells (seeded at 1×10^4 /well the previous day). washed free of serum with DDME, in a total volume of 100 μl. Wells receiving mix with no test agent had the three different concentrations of oligonucleotide overlayed under the same conditions.
# (§3) After 3 hours of incubation under standard conditions of 37° C. and 5% CO2, the mix was removed and replaced with 50 μl of DDME. The cells were viewed live under the confocal microscope. The level of fluorescence was so high that the pinhole aperture for the LASER on the BioRad MRC 500 confocal microscope, was shut down to minimum. All images were then collected on the same settings for a quantitative comparison.
# CHO cells [2] = type: cell-based, Chinese Hamster
# Method: (LEGEND--FIGS. 7, 8 and 9; none; no agent used with plasmid DNA, rb/blank; reagent blank, number following description of compound indicates no. μl of 2 mM stock (diluted with water). 7b: 100% cell survival was taken from dishes which were "mock transfected" with no DNA or transfection agent. 0% viability was assayed in the absence of cells. Viability was assessed using the dye alamar blue.)
# Relative levels of cytotoxicity caused by the different agents were compared during the experiment using the dye "Alamar Blue" (Alamar, Sacramento Calif.).
# as §1
# leg muscle = experiment: In vivo transfection (pGFP-N1, intramuscular); parameters: species or system hairless mouse; conditions: 10 μg pGFP-N1, 24 hours
# Method: The plasmid pGFP-N1 (Clontech) encoding the Green Fluorescent Protein, was diluted 10 μg (in 10 μl) into 20 μl 5% dextrose in water and then combined with 2.1 μl of 10 mM K3ATL3 (10% DMSO) in 27.9 μl of 5% dextrose in water. After 10 min incubation at room temperature the mixture was injected into the leg muscle of a hairless mouse. The mouse was sacrificed after 24 hours and the muscle snap frozen on dry ice. Frozen sections of the tissue were made and analysed under the confocal microscope for fluorescence.
# Hela cells [3] = experiment: β-gal plate transfection assay, Hela; type: cell-based, Human; conditions: 48 hours
# Method: (§5) Hela cells were seeded in place of Cosl or CHO cells in DME+10% FCS at a density of 2×10^4 /well and transfected with pPGKlaczNLS as described above. At 48 hours, toxicity was determined by alamar blue and the cells processed for the β-gal assay.
# CHO cells [4] = experiment: Oligonucleotide transfection (18-mer fluoresceinated phosphorothioate), CHO; type: cell-based, Chinese Hamster; conditions: 3 hours
# Method: as §2, §3
# After confocal analysis, 100 μl of EMEM+10% FCS was added back to the wells and cells were incubated under standard conditions overnight. Cells were re-examined for fluorescence.
# cells [5] = experiment: β-gal reporter transfection, "y" linker non-standard amino acids; type: cell-based; conditions: K3 "y" TL3 compounds
# Method: Peptide/fatty acyl conjugates were synthesized using the non-standard amino acids amino butyric (C3), amino caproic (C5) and amino caprylic (C7) acids as the linker groups, a tri-lysine nucleic acid binding domain and laurate for the three fatty acyl groups. In these new conjugates the DNA binding and tris/fatty acyl moieties were separated by an extra 3, 5 and 7 carbon bond lengths respectively when compared with the prototype molecule. These compounds were then tested in the standard manner described above to determine their relative capacity to transfect cells.
# K3 "y" TL3 compounds, where y=C3, C5, C7, A, L, G were compared for transfection efficiency to each other and the commercial agent Lipofectamine using the standard β-gal reporter gene system described above.
# Cos 1 cells [6] = type: cell-based, African Green Monkey
# In short: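 Cytotoxicity of transfection agents (lipid/DNA combinations, β-galactosidase plasmid under PGK or SV40 early promoter) assessed in parallel with transfection. Viability read with alamar blue or, in some runs, MTS OD; higher signal means greater relative viability.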
# Hela cells [7] = tested on: Hela cells
# Method: as §5
# cells [8] = experiment: β-gal plate assay of unformulated mixtures of lipopeptides; type: cell-based; conditions: previously determined
# Method: The optimal level of transfection achieved using the compound K3ATL3 had been previously determined as requiring ^- 5 μM K3ATL3. K3ATL3 was mixed with each of K3ATL1, K3ATL2, K3ATM3, K3ATP3 and K3ATC3 to give a total concentration of lipid of 5 μM in 100 μl at ratios of 0:5, 1:4, 2:3, 3:2, 4:1 and 5:0. K3ATM3 was similarly mixed with K3ATM1, K3ATM2 and K3ATP3. Each of the lipid mixtures was combined with a constant amount of pSVGAL DNA 0.5 μg/well and transfection allowed to proceed normally.
# This was further tested by making a 4:1 molar mix of the two lipopeptides K3ATL3 and K3ATM3 and testing them in a standard plate assay which involved doubling dilutions of both the lipopeptide and DNA concentration. This was compared to expression achieved with using the pure compound K3ATL3 under the same conditions.
# Cos 1 cells [9] = experiment: β-gal microtitre plate transfection assay, Cos 1; type: cell-based, African Green Monkey
# In short: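 Cos 1 cells were transfected with β-galactosidase plasmids (mouse PGK or SV40 early promoter) across varied lipid/DNA ratios in microtitre format. The lipid/DNA ratio giving maximal expression was recorded. Viability was measured with alamar blue or MTS, where higher OD means greater viability.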
# Cos 1 cells [10] = type: cell-based, African Green Monkey; remark: listed apart in the source
# In short: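 Relative viability of Cos 1 cells exposed to lipid/DNA agents was read as MTS optical density; higher OD means greater viability. Some points came from separate experiments.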
# PC3 = experiment: Transfection of PC3 cells; type: cell-based, human; conditions: PC3, FIG. 22a
# From the text: (§4) Increasing the length of the linker portion of peptide/fatty acyl conjugates dramatically improves their transfection properties both in overall levels of reporter gene expression and also in the proportion of cells transfected. It is particularly noticable that peak levels of transfection are achieved using these reagents at a relatively low level of toxicity. […] This improved capacity of conjugates with longer linkers to promote transfection appears to be independent of cell type.
# [11] = Electron microscopy of formulated and unformulated compounds; type: physicochemical; conditions: rotary shadowed
# Method: Solutions of formulated and unformulated compounds were analysed for potential membrane-like structure. In separate experiments the following samples were analysed:
# a: Negatively stained samples of formulated compounds K3ATP2:DOPE, DOPE and the unformulated compounds K3C7ATL3 and Lipofectamine.
# b: Rotary shadowed samples of K3C7ATL3 and Lipofectamine mixed with two ratios of nucleotide (plasmid).
# Stock samples of liposomes at 2 mM, were diluted 1 in 10 with filtered distilled water, and mixed 1:1 with filtered negative stain (Ammonium Molybdate 2%, pH 6.5) and spread onto carbon-formvar coated copper/rhodium 200 mesh electron microscope grids, and examined in a Jeol JEM 100CX electron microscope at 60 kV at magnifications of between 33 k and 100 k.
# Ratios of 0.69, and 0.25, of liposome:1 mole DNA nucleotides were diluted in water and mixed for 10 min at room temperature, spread onto carbon-formvar coated grids and rotary metal-shadowed with platinum-palladium (60:40) evaporated at an angle of 7° and examined in the electron microscope at 60 kV at magnifications between 26 k and 66 k.
# Jurkat T cell line = experiment: Transfection of Jurkat cells; type: cell-based, Human; conditions: FIG. 22b
# From the text: as §4
# [12] = [nucleotide] 15.15 μM, [test agent] 10.5 μM
# [13] = [nucleotide] 15.15 μM, [test agent] 21 μM
# [14] = [nucleotide] 15.15 μM, [test agent] 42 μM
# [15] = [nucleotide] 30.3 μM, [test agent] 10.5 μM, *less strongly fluorescing for K3ATL3
# [16] = [nucleotide] 30.3 μM, [test agent] 21 μM
# [17] = [nucleotide] 30.3 μM, [test agent] 42 μM
# [18] = [nucleotide] 60.6 μM, [test agent] 10.5 μM, *less strongly fluorescing for K3ATL3
# [19] = [nucleotide] 60.6 μM, [test agent] 21 μM
# [20] = [nucleotide] 60.6 μM, [test agent] 42 μM
SMILES,"cytotoxicity at 3 h, 42 µM (in vitro) [%]",% cells fluorescing (CHO cells [4]; [12]) [%],% cells fluorescing (CHO cells [4]; [13]) [%],% cells fluorescing (CHO cells [4]; [14]) [%],% cells fluorescing (CHO cells [4]; [15]) [%],% cells fluorescing (CHO cells [4]; [16]) [%],% cells fluorescing (CHO cells [4]; [17]) [%],% cells fluorescing (CHO cells [4]; [18]) [%],% cells fluorescing (CHO cells [4]; [19]) [%],% cells fluorescing (CHO cells [4]; [20]) [%],transfection efficiency compared to Lipofectamine (cells [5]),other results
CCCCCCCCCCCC(=O)OCC(COC(=O)CCCCCCCCCCC)(COC(=O)CCCCCCCCCCC)NC(=O)[C@H](C)NC(=O)[C@H](CCCCN)NC(=O)[C@H](CCCCN)NC(=O)[C@@H](N)CCCCN [K3ATL3] (H-KKKA-{NHC(CH2OLauroyl)3}),> 90,100,100,100,100,100,100,100,100,100,more efficient at transfection than Lipofectamine,"ratio [lipid]/[DNA] at which maximum was achieved (CHO cells [1]): .69; β-gal (CHO) (CHO cells [1]; highest reading of 72 conditions): 7.89 × 10^-4; Viability (CHO) (CHO cells [2]): 0.027; GFP fluorescence in motor end-plates (leg muscle): very strong fluorescence was seen in the motor end-plates; GFP fluorescence in muscle cells (leg muscle): Punctate fluorescence was observed in the cytoplasm of muscle cells; transfection ability, chain length C10 to C16 (Hela cells [3]): peak transfection efficiency at C12; Viability (Cos 1) (Cos 1 cells [6]): 0.095; cell viability (Hela cells [7]): peak level of cell viability; concentration required for optimal transfection (cells [8]): ~5 µM; transfection, linkers A, L and G compared (Cos 1 cells [9]; ""y"" linker experiment c, Cos 1, trilysine trilaurate): superior in achieving transfection; ratio [lipid]/[DNA] at which maximum was achieved (Cos 1 cells [9]; Table 2, Cos 1): 1.39; units β-gal (Cos 1 cells [9]; Table 2, Cos 1, highest reading of 72 conditions): 4.95 × 10^-4 units; β-gal (Cos 1) (Cos 1 cells [9]; Table 3, Cos 1, # tested in a separate experiment): 4.95 × 10^-4; β-gal (Cos 1) (Cos 1 cells [9]; Table 3, Cos 1, highest reading of 72 conditions): 3.02 × 10^-4; MTS OD490-655 (Cos 1 cells [10]): 1.363; Viability (Cos 1) (Cos 1 cells [10]): 1.36"
CCCCCCCCCCCC(=O)OCC(COC(=O)CCCCCCCCCCC)(COC(=O)CCCCCCCCCCC)NC(=O)CCCCCCCNC(=O)[C@H](CCCCN)NC(=O)[C@H](CCCCN)NC(=O)[C@@H](N)CCCCN [K3C7TL3],> 90,100,100,100,100,100,100,100,100,100,more efficient at transfection than Lipofectamine,transfection compared to lipofectamine (PC3): more effective transfection reagent than lipofectamine; DNA incorporation ([11]; lipopeptide : nucleotide ratio 0.69 (optimal)): most of the DNA was incorporated into collections of liposomes; DNA free in solution ([11]; ratio 0.25:1 (suboptimal)): a large amount of DNA was free in the solution; transfection compared to lipofectamine (Jurkat T cell line): more effective transfection reagent than lipofectamine; transfection efficiency compared to standard single amino acid linker (cells [5]): dramatically more efficient than compounds using the standard single amino acid linker
